Measurements as given in patent publication US8022239B2, “Mechanism-based inactivators of autotaxin” (The University of Memphis Research Foundation, priority 2008, dated 2011).

Target: T1, autotaxin (ATX) (Homo sapiens, UniProt Q13822)
T1 construct: concentrated conditioned serum-free medium (CCM) from MDA MB-435 cells as the source of ATX; endogenous in cells; host or cells: MDA-MB-435 cells (serum-free conditioned medium, concentrated ~10 fold)
Assay: Autotaxin inactivation analysis: ATX-mediated hydrolysis of FS-3 (fluorescence), concentrated conditioned medium from MDA MB-435 cells as ATX source
Assay type: biochemical
Conditions: FS-3 substrate
Experimental: The test protocol was as follows:
MDA-MB-435 cells were cultured at 37° C. and 5% CO2 in Dulbecco's Modified Eagle Medium (DMEM) (MediaTech, Herndon, Va.) containing 5% fetal bovine serum (Hyclone, Logan, Utah), 100 U/ml penicillin, 100 μg/ml streptomycin (Hyclone, Logan, Utah) and 292 μg/ml L-glutamine (Hyclone, Logan, Utah). Cells were grown to ˜80% confluence at which time the cells were washed twice with sterile phosphate buffered saline prior to the addition of serum free DMEM containing L-glutamine. Conditioned medium was collected after 24-30 hours, supplemented with 20% ethylene glycol and was clarified by centrifugation at 3000×g and 4° C. for 10 min. The media was concentrated ˜10 fold and buffer exchanged into Tris (50 mM, pH 7.4) containing 20% ethylene glycol using an Amicon 8050 cell fitted with a PM30 filter (MILLIPORE®, Billerica, Mass.). Aliquots of concentrated conditioned media were stored at 4° C. until needed.
ATX inhibition was assayed using FS-3 (Echelon Biosciences, Inc., Salt Lake City, Utah, USA) as a substrate and ˜10 times concentrated conditioned serum-free medium (CCM) from MDA MB-435 cells as the source of ATX. Assays were performed in 96-well plates with CCM comprising one-third of the total volume and final FS-3 and charcoal-stripped fatty acid free BSA concentrations of 1 and 30 μM in assay buffer (1 mM each CaCl2 and MgCl2, 5 mM KCl, 140 mM NaCl, 50 mM Tris pH 8.0). Fluorescence was read at 5 minute intervals by a Synergy2 system (BioTek, Winooski, Vt.) with excitation and emission wavelengths of 485 and 538 nm, respectively. […] Fluorescence readings were normalized to vehicle control after subtraction of fluorescence in the absence of CCM. Data are shown as the mean±S.D. of at least three wells.

[1] = 3 uM, time 0 hour, low % response = effective inhibition

Row | Structure (SMILES) | Fluorescence (% Response) [1] | Fluorescence (% Response) (3 uM, time 1 hour) | Fluorescence (% Response) (3 uM, time 3 hours) | Fluorescence (% Response) (3 uM, time 6 hours) | Fluorescence (% Response) (30 uM, time 0 hour) | Fluorescence (% Response) (30 uM, time 1 hour) | Fluorescence (% Response) (30 uM, time 3 hours) | Fluorescence (% Response) (30 uM, time 6 hours) | Fluorescence (% Response) (100 uM, time 0 hour)
1 | CCCCCCCCCCCCCCCCOP(=O)(O)Oc1ccc(C(F)F)cc1 [Example 3, (16:0)-p-difluorophosphodiester] | 94.8% | 60.4% | 44.8% | 34.4% | 71.9% | 37.5% | 19.0% | – | –
2 | CCCCCCCCCCCCOP(=O)(O)Oc1ccc(CF)cc1 [Example 8, (12:0)-p-monofluorophosphodiester] | 99.4% | 70.0% | 52.2% | 40.6% | 89.1% | 63.0% | 48.4% | 37.7% | –
3 | CCCCCCCCCCCCCCOP(=O)(O)Oc1ccc(CF)cc1 [Example 6, (14:0)-p-monofluorophosphodiester] | 95.9% | 61.9% | 45.7% | 32.7% | 48.9% | 31.3% | 25.0% | 18.5% | –
4 | CCCCCCCCCCCCCCCCCCOP(=O)(O)Oc1ccc(C(F)F)cc1 [Example 1, (18:0)-p-difluorophosphodiester] | – | – | – | – | 96.1% | – | – | – | 94.1%
5 | CCCCCCCCCCCCCCCCCCOP(=O)(O)Oc1ccc(CF)cc1 [Example 2, (18:0)-p-monofluorophosphodiester] | 83.3% | 47.9% | 28.1% | 25.0% | 57.3% | 35.4% | 9.4% | −2.1% | –
6 | CCCCCCCCCCCCOP(=O)(O)Oc1ccc(C(F)F)cc1 [Example 7, (12:0)-p-difluorophosphodiester] | 93.9% | 64.5% | 48.3% | 37.0% | 52.0% | 36.2% | 29.4% | 24.9% | –
7 | CCCCCCCCCCCCCCOP(=O)(O)Oc1ccc(C(F)F)cc1 [Example 5, (14:0)-p-difluorophosphodiester] | 92.5% | 57.1% | 42.7% | 31.2% | 24.5% | 14.3% | 12.9% | 9.6% | –
8 | CCCCCCCCCCCCCCCCOP(=O)(O)Oc1ccccc1CF [Example 10, (16:0)-o-monofluorophosphodiester] | 86.6% | 29.3% | 10.6% | 4.7% | 0.4% | −16.8% | −18.7% | −17.0% | –
9 | CCCCCCCCCCCCCCCCOP(=O)(O)Oc1ccc(CF)cc1 [Example 4, (16:0)-p-monofluorophosphodiester] | 81.3% | 50.0% | 33.3% | 21.9% | 26.0% | 12.5% | 5.2% | −2.1% | –
